Data from patent US20180057507A1, “INHIBITORS OF DUAL LEUCINE ZIPPER (DLK) KINASE FOR THE TREATMENT OF DISEASE” (Board of Regents, The University of Texas System, priority 2016, published 2018).

What was measured:
human DLK [1] = target: T1, human DLK (Homo sapiens, UniProt Q12852); assay: Phospho-cJun Cellular Assay; format: cell-based; parameters: expressed in transfected cells; conditions: HEK293 cells stably transfected with Dox-inducible human DLK; p-cJun (Ser63); 5 h compound incubation
T1 sequence (Q12852 1-859): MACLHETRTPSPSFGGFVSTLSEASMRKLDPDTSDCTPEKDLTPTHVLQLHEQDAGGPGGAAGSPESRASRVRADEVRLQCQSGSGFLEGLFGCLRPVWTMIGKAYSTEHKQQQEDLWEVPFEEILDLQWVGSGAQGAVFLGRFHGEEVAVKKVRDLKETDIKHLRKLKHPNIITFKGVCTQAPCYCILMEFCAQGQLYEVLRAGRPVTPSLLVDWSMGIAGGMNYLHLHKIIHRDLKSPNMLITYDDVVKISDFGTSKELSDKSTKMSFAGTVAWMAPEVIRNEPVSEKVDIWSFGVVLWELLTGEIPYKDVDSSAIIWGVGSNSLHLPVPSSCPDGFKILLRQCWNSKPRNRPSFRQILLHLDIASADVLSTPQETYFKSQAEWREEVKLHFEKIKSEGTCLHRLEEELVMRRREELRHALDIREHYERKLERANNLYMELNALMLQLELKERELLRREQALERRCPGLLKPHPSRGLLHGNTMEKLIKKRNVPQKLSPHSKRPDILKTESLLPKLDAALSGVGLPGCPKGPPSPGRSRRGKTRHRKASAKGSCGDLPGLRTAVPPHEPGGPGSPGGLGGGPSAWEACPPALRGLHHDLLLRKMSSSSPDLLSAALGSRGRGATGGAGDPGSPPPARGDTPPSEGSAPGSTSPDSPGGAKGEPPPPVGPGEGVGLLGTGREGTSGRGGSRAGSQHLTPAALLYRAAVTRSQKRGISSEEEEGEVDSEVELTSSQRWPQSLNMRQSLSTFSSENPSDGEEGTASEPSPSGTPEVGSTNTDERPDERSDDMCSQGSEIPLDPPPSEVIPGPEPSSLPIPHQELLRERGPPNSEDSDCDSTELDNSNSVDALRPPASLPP
Protocol: Phospho-cJun Cellular Assay
HEK293 cells stably transfected with a Dox-inducible human DLK were plated into a 384-well plate in 20 μl (40,000 cells/well) of DMEM medium (without phenol red) containing 10% fetal bovine serum, 1.5 μg/ml doxycycline and 1 μg/ml puromycin. The cells as negative control were grown in the absence of doxycycline. The plate was incubated at 37° C., 5% CO2 for 20 h, before DMSO (control) or compounds diluted in medium were added. The cells were incubated at 37° C. for an additional 5 h, followed by lysis and the addition detection antibodies from p-cJun (Ser63) cellular assay kit (Cisbio) per manufacturer protocol. The standard dose response curves were fitted by Genedata Screener software using the variable-slope model: Signal=Signalnegative control+(SignalDMSO control−Signalnegative control)/(1+(IC50/Dose)̂Hill slope). Only signal and dose in the equation were treated as known values.

human DLK [2] = target: T1, human DLK; assay: DLK Kd Determinations (KINOMEscan KdELECT, DiscoveRx); parameters: full length of human DLK (amino acids 1-859); host or cells: transiently transfected HEK293 cells; unpurified extract; conditions: fusion protein of full length human DLK (amino acids 1-859) and NFkB DNA binding domain; qPCR readout; duplicate
Outline: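 Competition binding of full-length human DLK (aa 1-859)-NFkB DBD fusion, DNA-tagged, from HEK293 extracts against an immobilized ligand; 1 h at room temperature, 0.9% DMSO. Bead-bound kinase was quantified by qPCR. Kd came from an 11-point 3-fold series (top 30,000 nM), in duplicate, with Hill slope fixed at −1.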

Structure (SMILES)	IC50 (human DLK [1]) [nM]	Kd (human DLK [2]) [nM]
CC(C)c1nc(-c2cnc(N)c(OC(F)(F)F)c2)cn1[C@H]1[C@@H]2CC(N3CCCOCC3)C[C@@H]21 (single isomer, unassigned) [Example 20a, 5-(1-(3-(1,4-oxazepan-4-yl)bicyclo[3.1.0]hexan-6-yl)-2-isopropyl-1H-imidazol-4-yl)-3-(trifluoromethoxy)pyridin-2-amine]	965	15
Nc1ncc(-c2cn([C@H]3[C@@H]4CN(CCF)C[C@@H]43)c(CC3CC3)n2)cc1OC(F)F [Example 116, 5-(2-(cyclopropylmethyl)-1-((1R,5S,6s)-3-(2-fluoroethyl)-3-azabicyclo[3.1.0]hexan-6-yl)-1H-imidazol-4-yl)-3-(difluoromethoxy)pyridin-2-amine]	1440	53
CC(C)c1nc(-c2cnc(N)c(OC(F)(F)F)c2)cn1[C@H]1[C@@H]2CC(N3CCN(C)CC3)C[C@@H]21 (single isomer, unassigned) [Example 133b, 5-(2-isopropyl-1-(3-(4-methylpiperazin-1-yl)bicyclo[3.1.0]hexan-6-yl)-1H-imidazol-4-yl)-3-(trifluoromethoxy)pyridin-2-amine]	645	21
Nc1ncc(-c2cn([C@H]3[C@@H]4CN(CCF)C[C@@H]43)c(C3CC3)n2)cc1OC(F)(F)F [Example 69, 5-(2-cyclopropyl-1-((1R,5S,6s)-3-(2-fluoroethyl)-3-azabicyclo[3.1.0]hexan-6-yl)-1H-imidazol-4-yl)-3-(trifluoromethoxy)pyridin-2-amine]	2440	45
CC(C)c1nc(-c2cnc(N)c(C(F)(F)F)c2)cn1[C@H]1[C@@H]2CC(O)C[C@@H]21 (single isomer, unassigned) [Example 48b, 6-(4-(6-amino-5-(trifluoromethyl)pyridin-3-yl)-2-isopropyl-1H-imidazol-1-yl)bicyclo[3.1.0]hexan-3-ol]	1240	59
CC(C)Cc1nc(-c2cnc(N)c(C(F)(F)F)c2)cn1[C@H]1[C@@H]2CC(N3CCN(C)CC3)C[C@@H]21 (single isomer, unassigned) [Example 146a, 5-(2-isobutyl-1-(3-(4-methylpiperazin-1-yl)bicyclo[3.1.0]hexan-6-yl)-1H-imidazol-4-yl)-3-(trifluoromethyl)pyridin-2-amine]	376	6.5
CC(C)c1nc(-c2cnc(N)c(OC(F)(F)F)c2)cn1[C@H]1C[C@H](N2CCOCC2)C1 [Example 43, 5-(2-isopropyl-1-((1r,3r)-3-morpholinocyclobutyl)-1H-imidazol-4-yl)-3-(trifluoromethoxy)pyridin-2-amine]	804	120
CC(C)c1nc(-c2cnc(N)c(OC(F)(F)F)c2)cn1[C@H]1[C@@H]2CC(N3CCN(C)CC3)C[C@@H]21 (single isomer, unassigned) [Example 133a, 5-(2-isopropyl-1-(3-(4-methylpiperazin-1-yl)bicyclo[3.1.0]hexan-6-yl)-1H-imidazol-4-yl)-3-(trifluoromethoxy)pyridin-2-amine]	896	20
Nc1ncc(-c2cn([C@H]3[C@@H]4CN(C5COC5)C[C@@H]43)c(C3CC3)n2)cc1OC(F)(F)F [Example 65, 5-(2-cyclopropyl-1-((1R,5S,6s)-3-(oxetan-3-yl)-3-azabicyclo[3.1.0]hexan-6-yl)-1H-imidazol-4-yl)-3-(trifluoromethoxy)pyridin-2-amine]	1050	32
CC(C)Cc1nc(-c2cnc(N)c(OC(F)(F)F)c2)cn1[C@H]1[C@@H]2CC(N3CCN(CCF)CC3)C[C@@H]21 (single isomer, unassigned) [Example 159a, 5-(1-(3-(4-(2-fluoroethyl)piperazin-1-yl)bicyclo[3.1.0]hexan-6-yl)-2-isobutyl-1H-imidazol-4-yl)-3-(trifluoromethoxy)pyridin-2-amine]	589	33
Nc1ncc(-c2cn(C3CC4(CC(N5CCOCC5)C4)C3)c(C3CC3)n2)cc1C(F)(F)F (stereo not drawn) [Example 40, 5-(2-cyclopropyl-1-(6-morpholinospiro[3.3]heptan-2-yl)-1H-imidazol-4-yl)-3-(trifluoromethyl)pyridin-2-amine]	587	42
COCCN1C[C@@H]2[C@H](C1)[C@H]2n1cc(-c2cnc(N)c(C(F)(F)F)c2)nc1C1CC1 [Example 94, 5-(2-cyclopropyl-1-((1R,5S,6s)-3-(2-methoxyethyl)-3-azabicyclo[3.1.0]hexan-6-yl)-1H-imidazol-4-yl)-3-(trifluoromethyl)pyridin-2-amine]	1960	61
CC(C)c1nc(-c2cnc(N)c(C(F)(F)F)c2)cn1[C@H]1[C@@H]2CC(O)C[C@@H]21 (single isomer, unassigned) [Example 48a, 6-(4-(6-amino-5-(trifluoromethyl)pyridin-3-yl)-2-isopropyl-1H-imidazol-1-yl)bicyclo[3.1.0]hexan-3-ol]	1590	84
Nc1ncc(-c2cn([C@H]3[C@@H]4CC(N5CCN(CCF)CC5)C[C@@H]43)c(CC3CC3)n2)cc1OC(F)(F)F (single isomer, unassigned) [Example 152b, 5-(2-(cyclopropylmethyl)-1-(3-(4-(2-fluoroethyl)piperazin-1-yl)bicyclo[3.1.0]hexan-6-yl)-1H-imidazol-4-yl)-3-(trifluoromethoxy)pyridin-2-amine]	1150	13
CC(C)c1nc(-c2cnc(N)c(C(F)(F)F)c2)cn1[C@H]1C[C@H](N2CCOCC2)C1 [Example 42, 5-(2-isopropyl-1-((1r,3r)-3-morpholinocyclobutyl)-1H-imidazol-4-yl)-3-(trifluoromethyl)pyridin-2-amine]	2230	180
CC(C)c1nc(-c2cnc(N)c(OC(F)F)c2)cn1[C@H]1[C@@H]2CC(N3CCN(C)CC3)C[C@@H]21 (single isomer, unassigned) [Example 145a, 3-(difluoromethoxy)-5-(2-isopropyl-1-(3-(4-methylpiperazin-1-yl)bicyclo[3.1.0]hexan-6-yl)-1H-imidazol-4-yl)pyridin-2-amine]	1200	39
CN1CCN(C2C[C@@H]3[C@H](C2)[C@H]3n2cc(-c3cnc(N)c(C(F)(F)F)c3)nc2CC2CC2)CC1 (single isomer, unassigned) [Example 161b, 5-(2-(cyclopropylmethyl)-1-(3-(4-methylpiperazin-1-yl)bicyclo[3.1.0]hexan-6-yl)-1H-imidazol-4-yl)-3-(trifluoromethyl)pyridin-2-amine]	629	
Nc1ncc(-c2cn([C@H]3[C@@H]4CC(N5CCN(CCF)CC5)C[C@@H]43)c(CC3CC3)n2)cc1C(F)(F)F (single isomer, unassigned) [Example 162a, 5-(2-(cyclopropylmethyl)-1-(3-(4-(2-fluoroethyl)piperazin-1-yl)bicyclo[3.1.0]hexan-6-yl)-1H-imidazol-4-yl)-3-(trifluoromethyl)pyridin-2-amine]	1040	
CC(C)c1nc(-c2cnc(N)c(C(F)(F)F)c2)cn1[C@H]1C[C@@H](N2CCOCC2)C1 [Example 44, 5-(2-isopropyl-1-((1s,3s)-3-morpholinocyclobutyl)-1H-imidazol-4-yl)-3-(trifluoromethyl)pyridin-2-amine]	7690	
Nc1ncc(-c2cn([C@H]3[C@@H]4CN(CC(F)(F)F)C[C@@H]43)c(C3CC3)n2)cc1OC(F)F [Example 108, 5-(2-cyclopropyl-1-((1R,5S,6s)-3-(2,2,2-trifluoroethyl)-3-azabicyclo[3.1.0]hexan-6-yl)-1H-imidazol-4-yl)-3-(difluoromethoxy)pyridin-2-amine]		140
